Measurements published in patent US11053204B2, “Pyrimidinyloxy benzene derivatives as herbicides” (FMC Corporation, priority 2015, dated 2021).

Legend:
Test in all cases: Test C postemergence, plant response rating
Format in all cases: in vivo
[1] = tested on: oat, wild (wild oat Avena fatua); conditions: Avena fatua, post-emergence
Method in brief: (§1)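 Pre-emergence: seeds sown in loam soil–sand blend or silt loam and sprayed with test chemicals in a non-phytotoxic solvent mixture with surfactant. Post-emergence: plants 2 to 18 cm (1- to 4-leaf stage) in peat-based potting medium, same formulation. Greenhouse 13 to 15 d; visual rating 0 (no effect) to 100 (complete control) versus controls.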

[2] = tested on: nutsedge, yellow (yellow nutsedge, Cyperus esculentus); conditions: Cyperus, post-emergence
Method in brief: as §1

[3] = tested on: barnyardgrass (Echinochloa crus-galli); conditions: Echinochloa crus-galli, post-emergence
Method in brief: as §1

[4] = tested on: blackgrass (Alopecurus myosuroides); conditions: Alopecurus myosuroides, post-emergence
Method in brief: as §1

[5] = tested on: ragweed (common ragweed, Ambrosia elatior); conditions: Ambrosia artemisiifolia, post-emergence
Method in brief: as §1

[6] = tested on: crabgrass, large (large crabgrass, Digitaria sanguinalis); conditions: Digitaria sanguinalis, post-emergence
Method in brief: as §1

[7] = tested on: oilseed rape (Brassica napus); conditions: Brassica napus, post-emergence
Method in brief: as §1

[8] = tested on: kochia (Kochia scoparia); conditions: Bassia scoparia, post-emergence
Method in brief: as §1

[9] = tested on: corn (Zea mays); conditions: Zea mays, post-emergence
Method in brief: as §1

[10] = tested on: velvetleaf (Abutilon theophrasti); conditions: Abutilon theophrasti, post-emergence
Method in brief: as §1

[11] = tested on: galium (catchweed bedstraw, Galium aparine); conditions: Galium, post-emergence
Method in brief: as §1

[12] = tested on: soybean (Glycine max); conditions: Glycine max, post-emergence
Method in brief: as §1

[13] = tested on: wheat (winter wheat, Triticum aestivum); conditions: Triticum aestivum, post-emergence
Method in brief: as §1

[14] = tested on: lambsquarters (Chenopodium album); conditions: Chenopodium album, post-emergence
Method in brief: as §1

[15] = tested on: ryegrass, Italian (Italian ryegrass, Lolium multiflorum); conditions: Lolium multiflorum, post-emergence
Method in brief: as §1

[16] = tested on: waterhemp (common waterhemp, Amaranthus rudis); conditions: for Plant response rating, Waterhemp: scale 0 to 100; for Waterhemp plant response rating: scale 0 to 100 (0 no effect, 100 complete control)
Method in brief: as §1

[17] = 62 g ai/ha, scale 0 to 100 (0 no effect, 100 complete control)
[18] = 125 g ai/ha, scale 0 to 100 (0 no effect, 100 complete control)

C=CCOC(=O)c1c(Br)cccc1Oc1ncc(Cl)cn1 [Compound 22, 2-propen-1-yl 2-bromo-6-[(5-chloro-2-pyrimidinyl)oxy]benzoate]
pest or weed control at 16 g/ha ([1]; 16 g ai/ha, scale 0 to 100): 0% | pest or weed control at 31 g/ha ([1]; 31 g ai/ha, scale 0 to 100): 0% | pest or weed control at 62 g/ha [1, 17]: 0% | pest or weed control at 125 g/ha [1, 18]: 5% | pest or weed control at 16 g/ha ([2]; 16 g ai/ha, scale 0 to 100): 0% | pest or weed control at 31 g/ha ([2]; 31 g ai/ha, scale 0 to 100): 0% | pest or weed control at 62 g/ha [2, 17]: 5% | pest or weed control at 125 g/ha [2, 18]: 5% | pest or weed control at 16 g/ha ([3]; 16 g ai/ha, scale 0 to 100): 5% | pest or weed control at 31 g/ha ([3]; 31 g ai/ha, scale 0 to 100): 5% | pest or weed control at 62 g/ha [3, 17]: 10% | pest or weed control at 125 g/ha [3, 18]: 10% | pest or weed control at 16 g/ha ([4]; 16 g ai/ha, scale 0 to 100): 0% | pest or weed control at 31 g/ha ([4]; 31 g ai/ha, scale 0 to 100): 0% | pest or weed control at 62 g/ha [4, 17]: 0% | pest or weed control at 125 g/ha [4, 18]: 5% | pest or weed control at 16 g/ha ([5]; 16 g ai/ha, scale 0 to 100): 5% | pest or weed control at 31 g/ha ([5]; 31 g ai/ha, scale 0 to 100): 35% | pest or weed control at 62 g/ha [5, 17]: 50% | pest or weed control at 125 g/ha [5, 18]: 50% | pest or weed control at 16 g/ha ([6]; 16 g ai/ha, scale 0 to 100): 10% | pest or weed control at 31 g/ha ([6]; 31 g ai/ha, scale 0 to 100): 15% | pest or weed control at 62 g/ha [6, 17]: 25% | pest or weed control at 125 g/ha [6, 18]: 25% | plant injury at 16 g/ha ([7]; 16 g ai/ha, scale 0 to 100): 35% | plant injury at 31 g/ha ([7]; 31 g ai/ha, scale 0 to 100): 40% | plant injury at 62 g/ha [7, 17]: 55% | plant injury at 125 g/ha [7, 18]: 80% | pest or weed control at 16 g/ha ([8]; 16 g ai/ha, scale 0 to 100): 50% | pest or weed control at 31 g/ha ([8]; 31 g ai/ha, scale 0 to 100): 80% | pest or weed control at 62 g/ha [8, 17]: 85% | pest or weed control at 125 g/ha [8, 18]: 50% | Corn plant response rating (crop injury, 0 = no effect, 100 = complete kill) at 16 g/ha ([9]; 16 g ai/ha, scale 0 to 100): 5% | Corn plant response rating (crop injury, 0 = no effect, 100 = complete kill) at 31 g/ha ([9]; 31 g ai/ha, scale 0 to 100): 5% | plant injury at 62 g/ha [9, 17]: 5% | plant injury at 125 g/ha [9, 18]: 15% | pest or weed control at 16 g/ha ([10]; 16 g ai/ha, scale 0 to 100): 50% | pest or weed control at 31 g/ha ([10]; 31 g ai/ha, scale 0 to 100): 40% | pest or weed control at 62 g/ha ([10]; 62 g ai/ha, scale 0 to 100 (0 no effect, 100 complete control), read-out: Velvetleaf plant response rating): 55% | pest or weed control at 125 g/ha [10, 18]: 85% | pest or weed control at 16 g/ha ([11]; 16 g ai/ha, scale 0 to 100): 10% | pest or weed control at 31 g/ha ([11]; 31 g ai/ha, scale 0 to 100): 25% | pest or weed control at 62 g/ha [11, 17]: 60% | pest or weed control at 125 g/ha [11, 18]: 70% | plant injury at 16 g/ha ([12]; 16 g ai/ha, scale 0 to 100): 40% | plant injury at 31 g/ha ([12]; 31 g ai/ha, scale 0 to 100): 40% | plant injury at 62 g/ha [12, 17]: 35% | plant injury at 125 g/ha [12, 18]: 75% | plant injury at 16 g/ha ([13]; 16 g ai/ha, scale 0 to 100): 0% | plant injury at 31 g/ha ([13]; 31 g ai/ha, scale 0 to 100): 0% | plant injury at 62 g/ha ([13]; 62 g ai/ha, scale 0 to 100 (0 no effect, 100 complete control), read-out: Wheat plant response rating): 0% | plant injury at 125 g/ha [13, 18]: 0% | pest or weed control at 16 g/ha ([14]; 16 g ai/ha, scale 0 to 100): 65% | pest or weed control at 31 g/ha ([14]; 31 g ai/ha, scale 0 to 100): 70% | pest or weed control at 62 g/ha [14, 17]: 70% | pest or weed control at 125 g/ha [14, 18]: 75% | pest or weed control at 16 g/ha ([15]; 16 g ai/ha, scale 0 to 100): 0% | pest or weed control at 31 g/ha ([15]; 31 g ai/ha, scale 0 to 100): 0% | pest or weed control at 62 g/ha [15, 17]: 0% | pest or weed control at 125 g/ha [15, 18]: 5% | Plant response rating, Waterhemp ([16]; 16 g ai/ha): 75 | Plant response rating, Waterhemp ([16]; 31 g ai/ha): 75 | Waterhemp plant response rating ([16]; 62 g ai/ha): 85 | Waterhemp plant response rating ([16]; 125 g ai/ha): 80
